In US20040162467A1, “Non-invasive transudate extraction” (priority 2001, published 2004):

Tests used:
[1] = Other analytes: transdermal collection levels versus serum levels
[2] = Procalcitonin/TNF alpha and IL 6 (measure of bacterial sepsis): serum versus transdermal; type: in vivo
[3] = Concentrations in transdermal exudate collected by different formats from sheep, versus serum
Method: (§1) Sodium lauryl sulfate (40%) and either a commercial ultrasound conductive gel (Aquasonic, Parker Lab., NJ 07004, USA) or a 10% ethanol gel (the two gels were alternated in use) are employed. These gels are designated SLS-UG and SLS-EG respectively herein. Collected SLS-UG and SLS-EG are assayed as for blood. Saliva was divided into two samples. The first sample is stored at −20° C. and assayed as for blood. The second sample is assayed at the time of experimentation using the apparatus and immunosensors described above.
Ten of these animals were used to develop the transdermal exudate collection technique. These 10 animals were penned as above, and a catheter inserted into the jugular vein using known techniques in the art. A mixture of sodium lauryl sulfate and either SLS-UG or SLS-EG was positioned onto the shaved area on the back of each animal. […] At the end of the hour, the remaining mix on the back was collected. The entire procedure was repeated three times. This mix was subject to assay (see below) for hormones and glucose content.
On the following day, one of the two gel mixes were rubbed on and, after 10 min, ultrasound (20 kHz, 10 W/cm^2, pulsed 5 s on/5 s off using an ITO Physiotherapy and rehabilitation unit, Tokyo 176-8605, Japan) applied for 1 min directly onto the mix. Ten minutes later, the mix was again collected and measured. This was then repeated with 2 min of the ultrasound application, and on a following day, the entire procedure repeated using the alternative gel mix on the shaved patch on the animal. Times greater than 2 min were not attempted due to potential risk of skin damage. Blood samples were collected at the time of ultrasound application and again at the time when the gel mix was also collected. The entire ultrasound procedure was then repeated on subsequent days with the addition of an application of a 9V electric field either side of the ultrasound head (in contact with skin).
On a separate day, in a further repeat of the above procedure; the collecting head (50) was positioned onto the ultrasound device. The ultrasound device was modified to ensure good coupling for use with the collecting head and delivery of needed parameters to the skin. The output of the device was reset to achieve the same energy and pulse delivery to the skin's surface as when the collecting head was not present, and the ultrasound device had been placed directly in contact with the gels (as described above). Three fluid flow rates into the collection chamber of the head were compared: 150, 300 and 600 μl/min. The effluent fluid was then assayed. On a final day, this was then repeated with the immunosensors positioned in the exit line from the chamber, with immunosensor measurement of the hormones made as has been described above.

[4] = Serum, transdermal and saliva samples from sheep before, during and after exercise; details: for Exudate: transdermal; for Saliva: 20-min saliva lag
Method: as §1
(§2) Student t tests, ANOVA or Wilcoxon test for paired samples are made as appropriate. Statistical significance is taken at P≦0.05 level. For analysis across the exercise stress, data is grouped into pre, during and post exercise values as actual sample times relative to the exercise for transdermal and blood obtained values. For pre, during and post exercise grouping of saliva samples, a 20-min lag was allowed relative to blood and transdermal values in sheep and a 30-min lag in human subjects.
In the remaining 10 sheep, experimentation took place on three separate days, each 3 days apart. On days of experimentation, animals were penned as above and the jugular vein of the animal was catheterised. Animals were left to rest for 50 min and then a single ultrasound application applied for 1 min as above. […] A series of electrosonophoresis collections were made concurrently with blood collection from the jugular vein, every 5 min for a further 1 h. Saliva samples were collected on every second blood sample (i.e. every 10 min). At completion of this time, a human shepherd, intermittently for 30 min, then ran the animals around a paddock. During this 30 min, each animal was briefly restrained manually and sampled on all three parameters every 10 min (i.e. three samples repeated three times). At the end of this period, animals were repenned and rested for 10 min, and a further saliva collection was made. Following this saliva collection for a further 1-h period, collection as above, prior to exercise, was repeated. In this manner for each animal, in each session, 27 blood and transdermal samples and 16 saliva samples were collected.

[5] = Serum, transdermal and saliva samples from human subjects before, during and after exercise; details: for Exudate: transdermal; for Saliva: 30-min saliva lag
Method: as §1, §2
Ten human volunteers (males aged 19-23, body weights 85-103 kg) were seated at 09:30 h. During the experiment, they were held at a room temperature of 20-22° C. An initial 1 min burst of ultrasound, as for the sheep (above), was made on the volar surface of the forearm, following application of SLS-EG mix. Ten minutes later, transdermal (electrosonophoresis) collection began from this site on this forearm, simultaneous to a venepuncture blood collection being made from the other. A saliva collection was then made, followed by a second, third and fourth saliva collection 20, 30 and 40 min after the blood sample. These measurements were repeated three times over 3 h (i.e. a total of three blood and transdermal samples and 12 saliva samples). In between each sampling series, subjects were allowed to walk around, eat lightly and drink water. Following this collection, the five volunteers exercised at moderate intensities, for 40 min (heart rates maintained in the range of 130-160 bpm) on a rowing machine, stopping briefly at 10, 20 and 30 min to give blood, transdermal and saliva samples. The subjects gave another set of samples at 40 min upon completion of rowing, then warmed down lightly with stretching exercises for a further 10 min and gave a further saliva sample at the end of this time. Two more saliva samples were collected at 60 and 70 min after exercise started. At the end of this time, sampling was repeated as above, prior to exercise, for a further 3 h. The entire procedure was repeated twice a week for 3 weeks (a total of six times). The distance rowed (m) represented the total work rate during the exercise.

[6] = first group of subjects (no condition given)
[7] = second group: females pregnant and lactating
[8] = sheep, SLS + 10% E + US 1 min + 9 V
[9] = sheep, SLS + 10% E + US 1 min + 9 V + Collection Head
[10] = second group of subjects (no condition given)

CCO [Ethanol, ethanol]
Serum levels [1, 6]: 0.01 to 0.9 mg/mL | Transdermal collection levels [1, 6]: 0.02 to 0.08 mg/mL | Serum levels ([1]; second group (loading)): 0.4 to 1.4 mg/mL (loading) | Transdermal collection levels ([1]; second group (loading)): 0.05 to 0.11 mg/mL

TNF alpha
TNF alpha Trandermal ([2]; subject number 20): 0.5 to 12 ng/mL | Transdermal ([2]; subject number 20): 0.03 to 1.4 ng/mL | TNF alpha Trandermal ([2]; subject number 30): 0.1 to 0.5 ng/mL | Transdermal ([2]; subject number 30): 0.005 to 0.01 ng/mL

CN[C@@H](C)[C@@H](O)c1ccccc1 [Pseudoephedrine, reference compound]
Serum levels [1, 6]: 0.001 to 0.008 mg/mL | Transdermal collection levels [1, 6]: 0.0002 to 0.0008 mg/mL | Serum levels [1, 7]: 4-25 μg/ml females | Transdermal collection levels [1, 7]: 0.0004 to 0.0021 mg/mL

Insulin: endogenous hormone analyte measured in serum and exudate
Serum ([3]; sheep, SLS + 10% E): 0.18 ± 0.09 ng/mL | Exudate ([3]; sheep, SLS + 10% E + US 1 min): 0.0004 ± 0.002 ng/mL | Serum ([3]; sheep, SLS + 10% E + US 1 min): 0.4 ± 0.15 ng/mL | Exudate [3, 8]: 0.0064 ± 0.0041 ng/mL | Serum [3, 8]: 0.21 ± 0.08 ng/mL | Exudate [3, 9]: 0.013 ± 0.006 ng/mL | Serum [3, 9]: 0.19 ± 0.11 ng/mL | Serum ([3]; sheep, SLS + UG): 0.2 ± 0.6 ng/mL | Recovery as % of serum levels ([3]; sheep, gel mix with addition of ultrasound application): 2% | Serum ([4]; 10 min Exercise): 2.1e-07 ± 7e-08 mg/L | Serum ([4]; 20 min Exercise): 1.2e-07 ± 5e-08 mg/L | Exudate ([4]; 20 min Exercise): 9e-09 ± 3e-09 mg/L | Exudate ([4]; 30 min Exercise): 8e-09 ± 4e-09 mg/L | Serum ([4]; Postexercise): 1.9e-07 ± 8e-08 mg/L | Exudate ([4]; Postexercise): 1.4e-08 ± 8e-09 mg/L | Exudate ([4]; Preexercise): 2.9e-08 ± 9e-09 mg/L | Serum ([5]; 0 min Exercise): 13.1 ± 3.0 μIU/ml | Exudate ([5]; 10 min Exercise): 0.90 ± 0.28 μIU/ml | Serum ([5]; 20 min Exercise): 6.3 ± 3.8 μIU/ml | Serum ([5]; 30 min Exercise): 5.4 ± 4.1 μIU/ml | Exudate ([5]; 30 min Exercise): 0.46 ± 0.21 μIU/ml | Exudate ([5]; 40 min Exercise): 0.57 ± 0.33 μIU/ml | Serum ([5]; Postexercise): 14.1 ± 5.5 μIU/ml | Exudate ([5]; Postexercise): 1.15 ± 0.48 μIU/ml | Exudate ([5]; Preexercise): 1.35 ± 0.90 μIU/ml

C[C@]12CC[C@@H]3c4ccc(O)cc4CC[C@H]3[C@@H]1CC[C@@H]2O [Estradiol, 17-β estradiol]
Recovery as % of serum levels ([3]; in vivo): 1% | Serum ([4]; 10 min Exercise): 1.5 ± 1.1 mg/L | Saliva ([4]; 10 min Exercise): 0.038 ± 0.011 mg/L | Exudate ([4]; 10 min Exercise): 0.14 ± 0.08 mg/L | Serum ([4]; 20 min Exercise): 1.3 ± 1.1 mg/L | Saliva ([4]; 20 min Exercise): 0.046 ± 0.009 mg/L | Exudate ([4]; 20 min Exercise): 0.12 ± 0.07 mg/L | Serum ([4]; 30 min Exercise): 1.5 ± 1.3 mg/L | Saliva ([4]; 30 min Exercise): 0.03 ± 0.012 mg/L | Exudate ([4]; 30 min Exercise): 0.14 ± 0.09 mg/L | Serum ([4]; Postexercise): 2.2 ± 1.1 mg/L | Saliva ([4]; Postexercise): 0.052 ± 0.021 mg/L | Exudate ([4]; Postexercise): 0.20 ± 0.06 mg/L | Serum ([4]; Preexercise): 1.4 ± 1.2 mg/L | Saliva ([4]; Preexercise): 0.05 ± 0.03 mg/L | Exudate ([4]; Preexercise): 0.12 ± 0.06 mg/L | Saliva ([5]; 0 min Exercise): 0.76 ± 0.38 ng/L | Exudate ([5]; 0 min Exercise): 1.53 ± 0.59 ng/L | Saliva ([5]; 10 min Exercise): 0.75 ± 0.51 ng/L | Exudate ([5]; 10 min Exercise): 1.47 ± 0.94 ng/L | Saliva ([5]; 20 min Exercise): 0.83 ± 0.39 ng/L | Exudate ([5]; 20 min Exercise): 1.74 ± 0.54 ng/L | Saliva ([5]; 30 min Exercise): 0.85 ± 0.22 ng/L | Exudate ([5]; 30 min Exercise): 2.14 ± 0.86 ng/L | Saliva ([5]; 40 min Exercise): 0.68 ± 0.26 ng/L | Exudate ([5]; 40 min Exercise): 1.53 ± 0.51 ng/L | Saliva ([5]; Postexercise): 0.45 ± 0. ng/l | Exudate ([5]; Postexercise): 1.11 ± 0.55 ng/L | Saliva ([5]; Preexercise): 0.71 ± 0.25 ng/L | Exudate ([5]; Preexercise): 1.23 ± 0.46 ng/L

Cn1c(=O)c2c(ncn2C)n(C)c1=O [Caffeine]
Serum levels [1, 6]: 1 to 5 mg/mL | Transdermal collection levels [1, 6]: 0.2 to 0.8 mg/mL | Serum levels ([1]; second group (loading)): 4 to 14 mg/mL (loading) | Transdermal collection levels ([1]; second group (loading)): 0.3 to 1.5 mg/mL

CC(=O)[C@H]1CC[C@H]2[C@@H]3CCC4=CC(=O)CC[C@]4(C)[C@H]3CC[C@]12C [Progesterone]
Serum levels [1, 6]: 1e-06 to 1.2e-05 mg/mL | Transdermal collection levels [1, 6]: 2e-07 to 1.1e-06 mg/mL | Serum levels [1, 10]: 8e-06 to 2.5e-05 mg/mL | Transdermal collection levels [1, 10]: 5e-07 to 2.8e-06 mg/mL

IL 6: measure of bacterial sepsis
Serum ([2]; subject number 20): 0.3 to 11.5 ng/mL | Transdermal ([2]; subject number 20): 0.04 to 1.2 ng/mL | Serum ([2]; subject number 30): 0.1 to 0.3 ng/mL | Transdermal ([2]; subject number 30): 0.03 to 0.05 ng/mL

B1: Procalcitonin: measure of bacterial sepsis (protein, UniProt P01258 26-141, looked up)
pro-form: APFRSALESSPADPATLSEDEARLLLAALVQDYVQMKASELEQEQEREGSSLDSPRSKRCGNLSTCMLGTYTQDFNKFHTFPQTAIGVGAPGKKRDMSSDLERDHRPHVSMPQNAN
modifications: pro-form
notes: measure of bacterial sepsis
Serum ([2]; subject number 20): 0.5 to 15 ng/mL | Transdermal ([2]; subject number 20): 0.04 to 1.7 ng/mL | Serum ([2]; subject number 30): 0.1 to 0.5 ng/mL | Transdermal ([2]; subject number 30): 0.02 to 0.05 ng/mL

B2: Prolactin: endogenous hormone analyte (protein, UniProt P01236 29-227, looked up)
Prolactin: LPICPGGAARCQVTLRDLFDRAVVLSHYIHNLSSEMFSEFDKRYTHGRGFITKAINSCHTSSLATPEDKEQAQQMNQKDFLSLIVSILRSWNEPLYHLVTEVRGMQEAPEAILSKAVEIEEQTKRLLEGMELIVSQVHPETKENEIYPVWSGLPSLQMADEESRLSAYYNLLHCLRRDSHKIDNYLKLLKCRIIHNNNC
Serum levels [1, 6]: 1e-06 to 8e-06 mg/mL | Transdermal collection levels [1, 6]: 2e-08 to 8e-07 mg/mL | Serum levels [1, 7]: 4-100 ng/ml females | Transdermal collection levels [1, 7]: 4e-07 to 1e-05 mg/mL
